Assay results taken from ChEMBL document CHEMBL4000183, “Phenylpropanoids from Juglans mandshurica exhibit cytotoxicities on liver cancer cell lines through apoptosis induction” (Bioorg Med Chem Lett, 2017).
Active and inactive are the calls of the source. The rule behind the calls is not given here.

Key:
Hep 3B2 [1] = assay: Induction of apoptosis in human Hep3B cells assessed as decrease in pro-caspase 9 level at 70 uM after 48 hrs by Western blot analysis; type: functional, cell-based
HepG2 [2] = assay: Cytotoxic activity against human HepG2 cells assessed as growth inhibition at 6.25 uM after 48 hrs by MTT assay; type: functional; conditions: HepG2, 48 h, read-out: GI
HepG2 [3] = assay: Induction of apoptosis in human HepG2 cells assessed as increase in Bax level at 60 uM after 48 hrs by Western blot analysis; type: functional, cell-based
Hep 3B2 [4] = assay: Induction of apoptosis in human Hep3B cells assessed as increase in cleaved-caspase 9 level at 70 uM after 48 hrs by Western blot analysis; type: functional, cell-based
Hep 3B2 [5] = assay: Cytotoxic activity against human Hep3B cells assessed as growth inhibition after 48 hrs by MTT assay; type: functional, cell-based; conditions: for IC50: Homo sapiens, Hep3B, 48 h
HepG2 [6] = assay: Cytotoxic activity against human HepG2 cells assessed as growth inhibition after 48 hrs by MTT assay; type: functional, cell-based; conditions: for IC50: Homo sapiens, HepG2, 48 h
HepG2 [7] = assay: Induction of apoptosis in human HepG2 cells assessed as decrease in pro-caspase 9 level at 60 uM after 48 hrs by Western blot analysis; type: functional, cell-based
HepG2 [8] = assay: Cytotoxic activity against human HepG2 cells assessed as growth inhibition at 100 uM after 48 hrs by MTT assay; type: functional; conditions: HepG2, 48 h, read-out: GI
Hep 3B2 [9] = assay: Induction of apoptosis in human Hep3B cells assessed as increase in Bax level at 70 uM after 48 hrs by Western blot analysis; type: functional, cell-based
Hep 3B2 [10] = assay: Cytotoxic activity against human Hep3B cells assessed as growth inhibition at 6.25 uM after 48 hrs by MTT assay; type: functional; conditions: read-out: GI
Hep 3B2 [11] = assay: Induction of apoptosis in human Hep3B cells assessed as increase in cleaved PARP level at 70 uM after 48 hrs by Western blot analysis; type: functional, cell-based
Hep 3B2 [12] = assay: Induction of apoptosis in human Hep3B cells assessed as decrease in Bcl-2 level at 70 uM after 48 hrs by Western blot analysis; type: functional, cell-based
Hep 3B2 [13] = assay: Cytotoxic activity against human Hep3B cells assessed as growth inhibition at 25 uM after 48 hrs by MTT assay; type: functional; conditions: read-out: GI
HepG2 [14] = assay: Induction of apoptosis in human HepG2 cells assessed as decrease in pro-caspase 7 level at 60 uM after 48 hrs by Western blot analysis; type: functional, cell-based
HepG2 [15] = assay: Induction of apoptosis in human HepG2 cells assessed as decrease in Bcl-2 level at 60 uM after 48 hrs by Western blot analysis; type: functional, cell-based
Hep 3B2 [16] = assay: Induction of apoptosis in human Hep3B cells assessed as increase in cleaved-caspase 7 level at 70 uM after 48 hrs by Western blot analysis; type: functional, cell-based
HepG2 [17] = assay: Cytotoxic activity against human HepG2 cells assessed as growth inhibition at 50 uM after 48 hrs by MTT assay; type: functional; conditions: HepG2, 48 h, read-out: GI
HepG2 [18] = assay: Induction of apoptosis in human HepG2 cells assessed as increase in cleaved-caspase 9 level at 60 uM after 48 hrs by Western blot analysis; type: functional, cell-based
Hep 3B2 [19] = assay: Induction of apoptosis in human Hep3B cells assessed as nuclear fragmentation at 70 uM after 48 hrs by AO staining-based phase contrast microscopic analysis; type: functional, cell-based
HepG2 [20] = assay: Cytotoxic activity against human HepG2 cells assessed as growth inhibition at 25 uM after 48 hrs by MTT assay; type: functional; conditions: HepG2, 48 h, read-out: GI
HepG2 [21] = assay: Induction of apoptosis in human HepG2 cells assessed as chromatin condensation at 60 uM after 48 hrs by AO staining-based phase contrast microscopic analysis; type: functional, cell-based
Hep 3B2 [22] = assay: Cytotoxic activity against human Hep3B cells assessed as growth inhibition at 50 uM after 48 hrs by MTT assay; type: functional; conditions: read-out: GI
HepG2 [23] = assay: Induction of apoptosis in human HepG2 cells assessed as increase in cleaved-caspase 7 level at 60 uM after 48 hrs by Western blot analysis; type: functional, cell-based
Hep 3B2 [24] = assay: Cytotoxic activity against human Hep3B cells assessed as growth inhibition at 12.5 uM after 48 hrs by MTT assay; type: functional; conditions: read-out: GI
HepG2 [25] = assay: Induction of apoptosis in human HepG2 cells assessed as decrease in PARP level at 60 uM after 48 hrs by Western blot analysis; type: functional, cell-based
HepG2 [26] = assay: Induction of apoptosis in human HepG2 cells assessed as nuclear fragmentation at 60 uM after 48 hrs by AO staining-based phase contrast microscopic analysis; type: functional, cell-based
Hep 3B2 [27] = assay: Cytotoxic activity against human Hep3B cells assessed as growth inhibition at 100 uM after 48 hrs by MTT assay; type: functional; conditions: read-out: GI
Hep 3B2 [28] = assay: Induction of apoptosis in human Hep3B cells assessed as decrease in PARP level at 70 uM after 48 hrs by Western blot analysis; type: functional, cell-based
HepG2 [29] = assay: Induction of apoptosis in human HepG2 cells assessed as increase in cleaved PARP level at 60 uM after 48 hrs by Western blot analysis; type: functional, cell-based
Hep 3B2 [30] = assay: Induction of apoptosis in human Hep3B cells assessed as cell shrinkage at 70 uM after 48 hrs by AO staining-based phase contrast microscopic analysis; type: functional
HepG2 [31] = assay: Induction of apoptosis in human HepG2 cells assessed as formation of apoptotic bodies at 60 uM after 48 hrs by AO staining-based phase contrast microscopic analysis; type: functional, cell-based
Hep 3B2 [32] = assay: Induction of apoptosis in human Hep3B cells assessed as chromatin condensation at 70 uM after 48 hrs by AO staining-based phase contrast microscopic analysis; type: functional, cell-based
Hep 3B2 [33] = assay: Induction of apoptosis in human Hep3B cells assessed as decrease in pro-caspase 7 level at 70 uM after 48 hrs by Western blot analysis; type: functional, cell-based
HepG2 [34] = assay: Cytotoxic activity against human HepG2 cells assessed as growth inhibition at 12.5 uM after 48 hrs by MTT assay; type: functional; conditions: HepG2, 48 h, read-out: GI
Hep 3B2 [35] = assay: Induction of apoptosis in human Hep3B cells assessed as increase in Bax level at 50 uM after 48 hrs by Western blot analysis; type: functional, cell-based
Hep 3B2 [36] = assay: Induction of apoptosis in human Hep3B cells assessed as decrease in pro-caspase 7 level at 50 uM after 48 hrs by Western blot analysis; type: functional, cell-based
Hep 3B2 [37] = assay: Induction of apoptosis in human Hep3B cells assessed as increase in cleaved-caspase 7 level at 50 uM after 48 hrs by Western blot analysis; type: functional, cell-based
Hep 3B2 [38] = assay: Induction of apoptosis in human Hep3B cells assessed as cell shrinkage at 50 uM after 48 hrs by AO staining-based phase contrast microscopic analysis; type: functional
Hep 3B2 [39] = assay: Induction of apoptosis in human Hep3B cells assessed as decrease in pro-caspase 9 level at 50 uM after 48 hrs by Western blot analysis; type: functional, cell-based
Hep 3B2 [40] = assay: Induction of apoptosis in human Hep3B cells assessed as decrease in Bcl-2 level at 50 uM after 48 hrs by Western blot analysis; type: functional, cell-based
Hep 3B2 [41] = assay: Induction of apoptosis in human Hep3B cells assessed as nuclear fragmentation at 50 uM after 48 hrs by AO staining-based phase contrast microscopic analysis; type: functional, cell-based
Hep 3B2 [42] = assay: Induction of apoptosis in human Hep3B cells assessed as chromatin condensation at 50 uM after 48 hrs by AO staining-based phase contrast microscopic analysis; type: functional, cell-based
Hep 3B2 [43] = assay: Induction of apoptosis in human Hep3B cells assessed as increase in cleaved-caspase 9 level at 50 uM after 48 hrs by Western blot analysis; type: functional, cell-based
Hep 3B2 [44] = assay: Induction of apoptosis in human Hep3B cells assessed as decrease in PARP level at 50 uM after 48 hrs by Western blot analysis; type: functional, cell-based
Hep 3B2 [45] = assay: Induction of apoptosis in human Hep3B cells assessed as increase in cleaved PARP level at 50 uM after 48 hrs by Western blot analysis; type: functional, cell-based

| SMILES | inhibition of growth at 6.25 µM (HepG2 [2]) | Activity (HepG2 [3]) | growth inhibition (GI) (Hep 3B2 [5]) | IC50 (Hep 3B2 [5]) | growth inhibition (GI) (HepG2 [6]) | IC50 (HepG2 [6]) | Activity (HepG2 [7]) | inhibition of growth at 100 µM (HepG2 [8]) | inhibition of growth at 6.25 µM (Hep 3B2 [10]) | inhibition of growth at 25 µM (Hep 3B2 [13]) | Activity (HepG2 [14]) | Activity (HepG2 [15]) | inhibition of growth at 50 µM (HepG2 [17]) | Activity (HepG2 [18]) | inhibition of growth at 25 µM (HepG2 [20]) | Activity (HepG2 [21]) | inhibition of growth at 50 µM (Hep 3B2 [22]) | Activity (HepG2 [23]) | inhibition of growth at 12.5 µM (Hep 3B2 [24]) | Activity (HepG2 [25]) | further results |
| --- | --- | --- | --- | --- | --- | --- | --- | --- | --- | --- | --- | --- | --- | --- | --- | --- | --- | --- | --- | --- | --- |
| CC(CO)CCOc1ccc(/C=C/C=O)cc1 (stereo not drawn) | 6.6% | Active | 95.08% | 69.9 µM | 83.9% | 58.6 µM | Active | 80% | -4.07% | 0.48% | Active | Active | 57% | Active | 14.1% | Active | 28.9% | Active | -2.42% | Active | Activity (Hep 3B2 [1]): Active; Activity (Hep 3B2 [4]): Active; Activity (Hep 3B2 [9]): Active; Activity (Hep 3B2 [11]): Active; Activity (Hep 3B2 [12]): Active; Activity (Hep 3B2 [16]): Active; Activity (Hep 3B2 [19]): Active; Activity (HepG2 [26]): Active; inhibition of growth at 100 µM (Hep 3B2 [27]): 85.8%; Activity (Hep 3B2 [28]): Active; Activity (HepG2 [29]): Active; Activity (Hep 3B2 [30]): Active; Activity (HepG2 [31]): Active; Activity (Hep 3B2 [32]): Active; Activity (Hep 3B2 [33]): Active; inhibition of growth at 12.5 µM (HepG2 [34]): 0.24% |
| COC(=O)c1ccc(OCCC(C)CO)cc1 (stereo not drawn) | – | – | 19.85% | – | -11.27% | – | – | – | – | – | – | – | – | – | – | – | – | – | – | – | – |
| C/C(=C\COc1ccc(/C=C/C=O)cc1)CO | -9.7% | Active | 93.78% | 46.5 µM | 87.79% | 63.7 µM | Active | 69.2% | -4.83% | 11.6% | Active | Active | 52% | Active | 7.01% | Active | 77.7% | Active | 9.1% | Active | Activity (Hep 3B2 [35]): Active; Activity (Hep 3B2 [36]): Active; Activity (Hep 3B2 [37]): Active; Activity (Hep 3B2 [38]): Active; Activity (Hep 3B2 [39]): Active; Activity (Hep 3B2 [40]): Active; Activity (Hep 3B2 [41]): Active; Activity (Hep 3B2 [42]): Active; Activity (Hep 3B2 [43]): Active; Activity (Hep 3B2 [44]): Active; Activity (HepG2 [26]): Active; inhibition of growth at 100 µM (Hep 3B2 [27]): 91.5%; Activity (Hep 3B2 [45]): Active; Activity (HepG2 [29]): Active; Activity (HepG2 [31]): Active; inhibition of growth at 12.5 µM (HepG2 [34]): 12.2% |
| COC(=O)/C=C/c1ccc(OC/C=C(\C)CO)cc1 | – | – | 26.16% | – | 86.42% | – | – | – | – | – | – | – | – | – | – | – | – | – | – | – | – |
| CC(CO)CCOc1ccc(C=O)cc1 (stereo not drawn) | – | – | 27.41% | – | -1.05% | – | – | – | – | – | – | – | – | – | – | – | – | – | – | – | – |
